Measurements as given in publication PMC9959456, “Multiple-P450 Gene Co-Up-Regulation in the Development of Permethrin Resistance in the House Fly, Musca domestica” (International Journal of Molecular Sciences, 2023).

Experiments:
CYP4S24 = target: T1, CYP4S24 (Musca domestica, UniProt T1PEC4); assay: HPLC substrate depletion, P450/CPR Sf9 microsomes; type: biochemical; conditions: 0.2 µM P450, NADPH-regenerating system, 0.25 mM MgCl2, pH 7.4, 30 °C, 120 min
T1 construct: full length, co-expressed with house fly CPR (MOI 10:1) by baculovirus in Sf9 cells; microsomes; with NADPH--cytochrome P450 reductase
T1 sequence (T1PEC4 1-496): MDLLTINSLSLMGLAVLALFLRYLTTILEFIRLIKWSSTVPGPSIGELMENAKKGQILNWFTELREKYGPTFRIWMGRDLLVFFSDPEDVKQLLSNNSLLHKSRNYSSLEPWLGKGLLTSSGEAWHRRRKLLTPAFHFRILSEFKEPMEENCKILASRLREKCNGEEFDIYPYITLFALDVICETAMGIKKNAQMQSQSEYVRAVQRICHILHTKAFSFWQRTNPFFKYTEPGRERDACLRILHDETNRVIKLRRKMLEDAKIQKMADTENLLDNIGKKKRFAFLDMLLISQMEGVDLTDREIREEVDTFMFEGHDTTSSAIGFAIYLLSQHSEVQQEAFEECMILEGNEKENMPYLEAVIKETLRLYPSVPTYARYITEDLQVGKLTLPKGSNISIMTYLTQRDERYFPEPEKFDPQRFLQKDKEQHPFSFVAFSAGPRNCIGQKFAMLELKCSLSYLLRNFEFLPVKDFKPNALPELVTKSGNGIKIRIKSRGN
T1 sequence (Q07994 1-671 partner): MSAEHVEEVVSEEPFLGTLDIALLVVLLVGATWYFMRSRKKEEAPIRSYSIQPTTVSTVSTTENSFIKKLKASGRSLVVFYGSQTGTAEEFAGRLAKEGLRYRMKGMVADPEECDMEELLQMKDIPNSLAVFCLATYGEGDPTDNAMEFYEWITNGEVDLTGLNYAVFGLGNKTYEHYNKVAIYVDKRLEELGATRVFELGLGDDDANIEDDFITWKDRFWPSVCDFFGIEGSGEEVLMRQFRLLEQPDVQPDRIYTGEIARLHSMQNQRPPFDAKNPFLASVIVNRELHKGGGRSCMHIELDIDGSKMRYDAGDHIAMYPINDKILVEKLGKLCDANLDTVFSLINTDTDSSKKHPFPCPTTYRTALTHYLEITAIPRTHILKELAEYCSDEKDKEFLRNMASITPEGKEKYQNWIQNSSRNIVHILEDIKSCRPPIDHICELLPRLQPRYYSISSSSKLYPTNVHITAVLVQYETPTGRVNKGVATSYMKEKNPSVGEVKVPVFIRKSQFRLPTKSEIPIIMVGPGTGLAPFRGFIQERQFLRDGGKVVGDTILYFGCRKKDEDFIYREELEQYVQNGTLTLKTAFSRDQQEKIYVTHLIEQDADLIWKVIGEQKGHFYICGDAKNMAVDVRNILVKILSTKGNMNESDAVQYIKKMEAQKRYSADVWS

CYP6A36 = target: T2, CYP6A36 (Musca domestica, UniProt Q06S82); assay: HPLC substrate depletion, P450/CPR Sf9 microsomes; type: biochemical; conditions: 20 µM cis/trans permethrin mixture, 0.2 µM P450, NADPH-regenerating system, 0.25 mM MgCl2, pH 7.4, 30 °C, 120 min
T2 construct: full length, co-expressed with house fly CPR (MOI 10:1) by baculovirus in Sf9 cells; microsomes; with NADPH--cytochrome P450 reductase
T2 sequence (Q06S82 1-507): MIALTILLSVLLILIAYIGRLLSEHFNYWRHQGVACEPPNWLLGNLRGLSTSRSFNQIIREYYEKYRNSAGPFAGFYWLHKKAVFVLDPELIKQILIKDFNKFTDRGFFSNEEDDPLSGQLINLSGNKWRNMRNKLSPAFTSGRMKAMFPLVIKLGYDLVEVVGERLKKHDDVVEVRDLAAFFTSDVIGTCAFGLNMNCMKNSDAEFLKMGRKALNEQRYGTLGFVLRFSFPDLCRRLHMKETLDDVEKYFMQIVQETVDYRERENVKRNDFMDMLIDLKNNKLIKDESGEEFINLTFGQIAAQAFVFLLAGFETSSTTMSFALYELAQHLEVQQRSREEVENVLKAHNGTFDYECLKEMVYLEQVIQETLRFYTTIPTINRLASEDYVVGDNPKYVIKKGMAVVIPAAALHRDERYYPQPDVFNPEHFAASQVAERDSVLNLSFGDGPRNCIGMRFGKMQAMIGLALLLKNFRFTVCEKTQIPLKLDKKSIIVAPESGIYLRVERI
T2 sequence (Q07994 1-671 partner): T1 sequence (Q07994 1-671 partner)

OCc1cccc(Oc2ccccc2)c1 [PBalc] was tested, and the “HPLC substrate depletion, P450/CPR Sf9 microsomes” value (CYP4S24; 20 µM PBalc) was “CYP4S24 exhibiting the highest ability to metabolize both PBalc and PBald”.

With O=Cc1cccc(Oc2ccccc2)c1 [PBald] the “HPLC substrate depletion, P450/CPR Sf9 microsomes” value (CYP4S24; 20 µM PBald) was “CYP4S24 exhibiting the highest ability to metabolize both PBalc and PBald”.

In the case of CC1(C)C(C=C(Cl)Cl)C1C(=O)OCc1cccc(Oc2ccccc2)c1 (stereo not drawn) [trans-permethrin], the “HPLC substrate depletion, P450/CPR Sf9 microsomes” value (CYP6A36) is reported as “CYP6A36 showed the highest activity toward both trans- and cis-permethrin”.
